Results published in patent US6251950A, “Aliphatic propargylamines as cellular rescue agents” (University of Saskatchewan, priority 1998, dated 2001).

Experiments:
[1] = system: pyramidal neurons in the hippocampus (CA1 neurons); test: Hypoxia/ischaemia model, CA1 neuron survival; type: in vivo, rat
HSP70 = test: Kainate-induced HSP70 expression in hippocampal CA1 field; type: in vivo, rat
Method: (§1) The levels of both proteins were measured 24 h after a single injection of kainate (10 mg/Kg,i.p). The levels (assessed by quantitative immunohistochemical imaging) can be seen in Table 5.
(§2) Values are means ± sem (n = 5)
(§3) Kainate (10 mg/Kg, i.p.); Rats with seizures between stages IV severe to V
(§4) severe were used. R-2HPA (0.25 mg/Kg, s.c.) was administered 4 h after
(§5) kainate injection; HSP70 and c-Fos expression were assessed 24 h after
(§6) kainate treatment (for details of method please see Zhang et al, 1996).
(§7) Statistics were performed using ANOVA followed by Newman-Keuls multiple

c-Fos = test: Kainate-induced delayed c-Fos expression in hippocampal CA1 field; type: in vivo, rat
Method: as §1, §2, §3, §4, §5, §6, §7

[2] = target: T1, rat liver mitochondrial monoamine oxidase B (Rattus norvegicus, UniProt P19643); test: biochemical; type: biochemical
T1 sequence (P19643 1-520): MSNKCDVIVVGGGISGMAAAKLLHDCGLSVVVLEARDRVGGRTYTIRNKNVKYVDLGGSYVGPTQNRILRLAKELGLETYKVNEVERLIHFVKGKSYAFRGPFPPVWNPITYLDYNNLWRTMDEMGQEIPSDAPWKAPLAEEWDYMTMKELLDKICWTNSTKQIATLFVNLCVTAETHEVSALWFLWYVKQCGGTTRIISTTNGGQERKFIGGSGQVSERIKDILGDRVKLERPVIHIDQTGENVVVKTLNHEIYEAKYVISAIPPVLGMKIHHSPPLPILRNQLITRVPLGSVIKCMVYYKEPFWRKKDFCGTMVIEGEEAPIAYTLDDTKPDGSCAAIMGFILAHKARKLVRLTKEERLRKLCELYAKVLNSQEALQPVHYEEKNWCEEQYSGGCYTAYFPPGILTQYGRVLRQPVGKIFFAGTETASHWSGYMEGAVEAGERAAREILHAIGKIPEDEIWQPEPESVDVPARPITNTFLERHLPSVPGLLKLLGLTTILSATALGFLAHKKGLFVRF
Method: Enzyme activity was assessed using a radiometric method as previously described (Yu et al, 1992).

mouse brain MAO-B = target: T2, mouse brain MAO-B (Mus musculus, UniProt Q8BW75); test: Inhibition in vivo of brain MAO-B activity after intraperitoneal administration
T2 construct: Striata were dissected from the brain two hours after i.p. administration of the drugs; from tissue; host or cells: mouse brain striata, dissected two hours after i.p. dosing
T2 sequence (Q8BW75 1-520): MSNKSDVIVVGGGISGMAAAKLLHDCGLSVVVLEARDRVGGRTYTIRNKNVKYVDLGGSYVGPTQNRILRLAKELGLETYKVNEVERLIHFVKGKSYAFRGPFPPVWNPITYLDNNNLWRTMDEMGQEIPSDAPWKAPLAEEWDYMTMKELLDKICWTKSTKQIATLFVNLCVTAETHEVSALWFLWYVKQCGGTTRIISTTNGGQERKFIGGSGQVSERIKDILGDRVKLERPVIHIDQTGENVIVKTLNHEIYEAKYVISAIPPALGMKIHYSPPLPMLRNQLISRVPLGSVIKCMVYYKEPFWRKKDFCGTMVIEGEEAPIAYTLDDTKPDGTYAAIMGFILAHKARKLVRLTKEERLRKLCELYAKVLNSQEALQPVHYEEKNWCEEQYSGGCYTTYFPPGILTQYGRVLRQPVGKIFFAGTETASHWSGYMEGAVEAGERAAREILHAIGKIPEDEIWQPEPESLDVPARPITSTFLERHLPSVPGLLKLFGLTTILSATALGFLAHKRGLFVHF
Method: Results are the average of two independent triplicate experiments for each i.p. dose. The doses were 0.5, 1, 2, 5, 10, 20 mg/Kg. Striata were dissected from the brain two hours after i.p. administration of the drugs. MAO-B activities were then determined immediately (Yu et al 1992). The values were estimated from dose-response curves.

SOD1 mRNA, PC12 cells [3] = test: SOD1 mRNA levels in PC12 cells (Northern Blot); type: cell-based
Method: PC12 cells were used to study the gene regulation of SOD (copper, zinc-dependent type, i.e. SOD1) by (R)-2-heptylpropargylamine (R-2HPA).
The SOD1 mRNA levels were detected by Northern Blots using total RNA from cultured PC12 cells treated with R-2HPA for 24 hours. The blots were hybridized with SOD1 cDNA probe labelled with P^32 dCTP and the auto radiographs were scanned by a Beckman spectrometer.

LNGFR mRNA, PC12 cells = test: LNGFR mRNA levels in PC12 cells (Northern Blot); type: cell-based
Method: The LNGFR mRNA levels were detected by Northern Blots using total RNA from cultured PC12 cells treated with R-2HPA for 24 hours. The blots were hybridized with LNGFR cDNA probe labelled with P^32 dCTP and the auto radiographs were scanned by a Beckman spectrometer.

hippocampal CA1 neurons = test: Kainic acid-induced neuronal damage; type: in vivo, rat; conditions: in words
in vitro = type: cell-based, Wistar rat; conditions: rat, cerebellar granule cells
Source text: (§8) Cultures of cerebellar granule cells (CGC) can be induced into apoptosis by the addition of a high concentration of cytosine arabinoside (Ara C) (Dessi et al., 1995) and it has been shown that this is a p53 dependent apoptosis (Enokido et al, 1996). We have measured the antiapoptotic effect of N-(2-heptyl)propargylamine (2HPA) using this system and compared the results to those obtained with previously known aliphatic methyl propargylamines and deprenyl.
(§9) Cultures of CGC were obtained from 6-8 day old Wistar rat pups. Cultures were grown on glass in 35 mm petri dishes for 3 days and then used for experiments. 20 μl aliquots of drug solutions (Ara C, anti-apoptotic drugs, drug vehicles) were added to the medium of the cultures. 24 Hours later the cultures were fixed with FAM, and stained with bis-benzamide. Normal and apoptotic nuclei were counted to a total of 90-120 cells per culture. […] Concentrations in excess of 150 μM caused detachment of the cultures.
(§10) Compounds were added at the following concentrations: Ara C, 100 μM,

[4] = system: cerebellar granule cells (CGC); test: in vitro; type: cell-based, Wistar rat
Source text: as §8, §9, §10

SOD1 mRNA, PC12 cells [5] = conditions: Li, et al., 1995; cited from earlier work
Parkinson's disease = conditions: cited from earlier work
PC12 cells = conditions: cited from earlier work
damaged neurons = conditions: some models; cited from earlier work
Alzheimer's disease = conditions: some patients; cited from earlier work
Tourette's syndrome = Tourette's syndrome patients; cited from earlier work
[6] = rodents and humans; cited from earlier work
[7] = system: catecholaminergic neuroblastoma SH-SY5Y cells; conditions: cited from earlier work
[8] = after kainate, rat hippocampal CA1 region
[9] = kainate 10 mg/Kg i.p., R-2HPA 0.25 mg/Kg s.c. 4 h after, assessed 24 h after kainate, mean ± sem (n = 5), *p < 0.01

SMILES: C#CCN[C@H](C)CCCCC.Cl [Example R-2HPA, (R)-N-2-Heptylpropargylamine hydrochloride]
- mean survival of CA1 neurons, percentage of vehicle treated controls (Table 2) ([1]; 0.1 μmol/kg, s.c., vehicle = 100%, ± sem (n = 6-10), **P < 0.01): 320 ± 48%
- response vs control in vivo at 0.1 µmol/kg ([1]; Rattus norvegicus, Neuron, sc, 0.1 μmol/kg, s.c., vehicle = 100%, ± sem (n = 6-10), *P < 0.05, **P < 0.01, read-out: Percentage survival of CA1 neurones, of vehicle treated controls (Table 4)): 320 ± 48%
- potency following oral administration versus R-2HMP ([1]; oral): more potent than its aliphatic methyl propargylamine analogue, R-2HMP
- activity in the hypoxia/ischaemia model ([1]; s.c.): Most active
- HSP70 expression (HSP70; [8]): able to block the expression of both genes
- HSP70 (Kainate + compound) (HSP70; [9]): 4.6 ± 2.0
- delayed c-Fos expression (c-Fos; [8]): able to block the expression of both genes
- Delayed c-Fos (Kainate + compound) (c-Fos; [9]): 4.5 ± 3.7
- Comparison to most effective MAO-B inhibitor in group ([2]; in vitro, relative to most effective inhibitor in group): 0.8%
- IC50 ([2]; substrate PE (β-phenylethylamine) 1.9 × 10^-5 M, average of at least 2 independent triplicate experiments): 4 µM
- inhibitory effect on mouse brain MAO-B (mouse brain MAO-B; i.p., compared with R-2HMP): weaker inhibitory effect
- Comparison to most effective inhibitor (mouse brain MAO-B; in vivo, i.p., relative to R-2HMP): 5%
- ED50 value fold higher than that of R-2HMP (mouse brain MAO-B; mouse brain MAO-B, i.p.): 20 fold
- ED50 (mouse brain MAO-B; mouse, ip, 2 h, read-out: IC50 (mg/Kg) (MAO-B, in vivo)): 4 mg/kg
- SOD1 gene expression (SOD1 mRNA, PC12 cells [3]; PC12 cells): stimulate SOD1 gene expression
- SOD1 mRNA level, % of control at 1 µM (SOD1 mRNA, PC12 cells [3]; Rattus norvegicus, PC-12, 1 μM, 24 hours, Mean ± SD (n = 4), **p < 0.01, control 100 ± 20): 184 ± 41%
- LNGFR mRNA (LNGFR mRNA, PC12 cells; PC12 cells): downregulated LNGFR mRNA
- mrna remaining at 1 µM (LNGFR mRNA, PC12 cells; Rattus norvegicus, PC-12, 1 μM, 24 hours, Mean ± SD (n = 4), **p < 0.01, control 100 ± 5.4): 68.8 ± 16.4%
- prevention of kainic acid-induced neuronal damage (hippocampal CA1 neurons): capable of preventing kainic acid-induced neuronal damage

SMILES: Nc1ccn([C@@H]2O[C@H](CO)[C@@H](O)[C@@H]2O)c(=O)n1 [Ara C, cytosine arabinoside]
- MCC at 24 h (in vitro): > 150 µM
- Percent Apoptotic Nuclei (Ara C alone) ([4]; Ara C 100 μM, mean ± sem of 4 cultures): 14.6 ± 0.9%

SMILES: C#CCN(C)[C@H](C)Cc1ccccc1 [R-deprenyl]
- blocking of Ara C induced apoptosis ([4]; 10^-7 M (FIG. 1c)): completely blocked
- SOD1 mRNA induction (previous findings) (SOD1 mRNA, PC12 cells [5]): can induce SOD1 mRNA in a dose dependent manner
- effect in Parkinson's disease (Parkinson's disease; adjuvant to L-dopa): effective adjuvant to L-dopa
- onset of symptoms in Parkinson's disease (Parkinson's disease; early otherwise untreated cases, administered alone): delay onset of symptoms
- prevention of apoptosis in PC12 cells (PC12 cells): can prevent apoptosis
- concentrations required to prevent apoptosis versus minimum necessary for MAO-B inhibition (damaged neurons): at least an order of magnitude lower
- clinical condition of Alzheimer patients (Alzheimer's disease): improved the clinical condition of some Alzheimer patients
- symptoms of attention deficit disorder (Tourette's syndrome): improved
- life span and sexual activity [6]: prolong life span and sexual activity
- cytotoxicity of dopamine towards SH-SY5Y cells [7]: enhance the cytotoxicity of dopamine
